In the assay the test system is BDF1 mice, B16 melanoma ip, median survival T/C. Description: NCI In Vivo Anticancer Drug Screen. Data for tumor model B16 Melanoma (intraperitoneal) in B6D2F1 (BDF1) mice. The following applies: endpoint: median survival time, higher = longer survival. As for the experimental part:
The antitumor activity of compounds was measured in mice bearing transplantable tumors. Survival or tumor size were measured and the results are expressed as the measurement made in the treated group (T) divided by the measurement made in the vehicle treated control group (C). The tumor model used in this assay is B16 Melanoma (intraperitoneal) in B6D2F1 (BDF1) mice

Setting [1] is: dose: 100.0 mg/kg/injection, schedule: Q01DX009 (ip), vehicle: Klucel (hydroxypropylcellulose) (HPC).
Where [2] appears, read: dose: 200.0 mg/kg/injection, schedule: Q01DX009 (ip), vehicle: Klucel (hydroxypropylcellulose) (HPC).
Where [3] appears, read: dose: 100.0 mg/kg/injection, schedule: Q01DX009 (ip), vehicle: saline.
The mark [4] stands for this setting: dose: 6.25 mg/kg/injection, schedule: Q01DX009 (ip), vehicle: Klucel (hydroxypropylcellulose) (HPC).
The mark [5] stands for this setting: dose: 12.5 mg/kg/injection, schedule: Q01DX009 (ip), vehicle: Klucel (hydroxypropylcellulose) (HPC).
The mark [6] stands for this setting: dose: 25.0 mg/kg/injection, schedule: Q01DX009 (ip), vehicle: Klucel (hydroxypropylcellulose) (HPC).
Setting [7] is: dose: 25.0 mg/kg/injection, schedule: Q01DX009 (ip), vehicle: saline.
Where [8] appears, read: dose: 50.0 mg/kg/injection, schedule: Q01DX009 (ip), vehicle: saline.
Where [9] appears, read: dose: 25.0 mg/kg/injection, schedule: Q01DX009 (ip), vehicle: saline with Tween-80.
[10] abbreviates: dose: 50.0 mg/kg/injection, schedule: Q01DX009 (ip), vehicle: saline with Tween-80.
The mark [11] stands for this setting: dose: 100.0 mg/kg/injection, schedule: Q01DX009 (ip), vehicle: saline with Tween-80.
[12] abbreviates: dose: 50.0 mg/kg/injection, schedule: Q01DX009 (ip), vehicle: Klucel (hydroxypropylcellulose) (HPC).

Here are results for 23 compounds from PubChem BioAssay AID192 (DTP/NCI, 2004).

Molecules are shown by their SMILES. “And” between values parts separate entries of the source, which are not always exact repeats. Equal entries are not always repeated. Inconclusive results and toxic doses are left out.

For `Nc1ccccc1SC1CC(=O)N(c2cccc(Cl)c2)C1=O` (centres undefined), the T/C by setting is: under setting [1], 95 % of control; under setting [2], 90 % of control.

Regarding `CC(C)[S][Pb]([c]1ccccc1)([c]1ccccc1)[c]1ccccc1`, the T/C was 97 % of control (dose: 0.3 mg/kg/injection, schedule: Q01DX009 (ip), vehicle: gum acacia); 91 % of control (dose: 0.6 mg/kg/injection, schedule: Q01DX009 (ip), vehicle: gum acacia); 89 % of control (dose: 1.25 mg/kg/injection, schedule: Q01DX009 (ip), vehicle: gum acacia).

In the case of `CN1CCN(CCCN2c3ccccc3Sc3ccc(Cl)cc32)CC1`, the T/C (dose: 0.19 mg/kg/injection, schedule: Q01DX009 (ip), vehicle: saline) is 111 % of control; the T/C (dose: 0.39 mg/kg/injection, schedule: Q01DX009 (ip), vehicle: saline) is 97 % of control; the T/C (dose: 0.78 mg/kg/injection, schedule: Q01DX009 (ip), vehicle: saline) was 100 % of control.

Turning to `C1CCC(C2OCCO2)CC1`, the T/C (dose: 50.0 mg/kg/injection, schedule: Q04DX003 (ip), vehicle: saline) was 90 % of control; the T/C under setting [3] was 113 % of control; the T/C (dose: 100.0 mg/kg/injection, schedule: Q04DX003 (ip), vehicle: saline) is 95 % of control; the T/C (dose: 200.0 mg/kg/injection, schedule: Q01DX009 (ip), vehicle: saline) is 97 % of control; the T/C (dose: 200.0 mg/kg/injection, schedule: Q04DX003 (ip), vehicle: saline) is 90 % of control.

In the case of `O=C(O)C(=O)O.O=C(O)C(=O)O.OO.OO.[Nb]`, the T/C (dose: 3.13 mg/kg/injection, schedule: Q01DX009 (ip), vehicle: water) was 100 % of control; the T/C (dose: 6.25 mg/kg/injection, schedule: Q01DX009 (ip), vehicle: water) is 101 % of control; the T/C (dose: 12.5 mg/kg/injection, schedule: Q01DX009 (ip), vehicle: water) was 103 % of control; the T/C (dose: 25.0 mg/kg/injection, schedule: Q01DX009 (ip), vehicle: water) is 112 % of control; the T/C (dose: 50.0 mg/kg/injection, schedule: Q01DX009 (ip), vehicle: water) was 96 % of control.

For the compound `COc1cccc(/C=N\N=C\c2cccc(OC)c2OC)c1OC`, the T/C by setting is: (dose: 6.25 mg/kg/injection, schedule: Q01DX009 (ip), vehicle: saline) 95 % of control; (dose: 12.5 mg/kg/injection, schedule: Q01DX009 (ip), vehicle: saline) 97 % of control.

Consider `COc1cccc(C2CCN(C)C2)c1` (centres undefined), for which the T/C was 89 % of control under setting [4], 100 % of control under setting [5] and 100 % of control under setting [6].

Turning to `COc1ccc2c(c1O)-c1cccc3c1[C@@H](C2)N(CCCl)CC3`, the T/C is, setting by setting: (dose: 4.0 mg/kg/injection, schedule: Q01DX009 (ip), vehicle: saline) 91 % of control and 116 % of control; (dose: 8.0 mg/kg/injection, schedule: Q01DX009 (ip), vehicle: saline) 97 % of control and 120 % of control; (dose: 16.0 mg/kg/injection, schedule: Q01DX009 (ip), vehicle: saline) 97 % of control and 111 % of control.

For `Cc1ccc(C)c(NC(=O)Nc2cccc(Cl)c2)c1`, the T/C is, setting by setting: under setting [1], 102 % of control; under setting [2], 100 % of control.

For the compound `CC(C)(O)c1cccc2c(C(C)(C)O)cccc12`, the T/C is, setting by setting: under setting [1], 92 % of control; under setting [2], 114 % of control; (dose: 400.0 mg/kg/injection, schedule: Q01DX009 (ip), vehicle: Klucel (hydroxypropylcellulose) (HPC)) 91 % of control.

For `CCCCCCCC(=O)CCC`, the T/C under setting [1] is 105 % of control and the T/C under setting [2] is 96 % of control.

In the case of `NC(=O)CC1=NCCc2ccccc21`, the T/C was 105 % of control under setting [7]; 97 % of control under setting [8]; 91 % of control and 105 % of control under setting [3].

Turning to `CCCCN1CCNCC1`, the T/C under setting [7] is 103 % of control, the T/C under setting [8] is 103 % of control and the T/C under setting [3] was 101 % of control.

For `O=C(Nc1cccc(C(F)(F)F)c1)c1ccc(C(=O)Nc2cccc(C(F)(F)F)c2)cc1`, the T/C under setting [9] is 205 % of control, the T/C under setting [10] is 184 % of control and the T/C under setting [11] was 90 % of control.

As for `COc1ccccc1C(=O)c1ccccc1Cc1cccc2ccccc12`, the T/C is 98 % of control under setting [10]; 97 % of control under setting [11]; 92 % of control (dose: 200.0 mg/kg/injection, schedule: Q01DX009 (ip), vehicle: saline with Tween-80); 93 % of control (dose: 400.0 mg/kg/injection, schedule: Q01DX009 (ip), vehicle: saline with Tween-80).

Take `Cc1cccc(C)c1NC(=O)Nc1ccc2c(c1)OCO2`: the T/C (dose: 100.0 mg/kg/injection, schedule: Q04DX003 (ip), vehicle: Klucel (hydroxypropylcellulose) (HPC)) is 92 % of control.

In the case of `c1cc2c(c(NC3=NCCCS3)c1)CCCC2`, the T/C is, setting by setting: under setting [12], 106 % of control; under setting [1], 96 % of control; under setting [2], 96 % of control.

`ClC1=C(Cl)C2(Cl)C3C(Cl)C(Cl)CC3C1(Cl)C2(Cl)Cl` (centres undefined): the T/C is 95 % of control (dose: 12.5 mg/kg/injection, schedule: Q01DX009 (ip), vehicle: saline with Tween-80) and 97 % of control under setting [9].

`Cc1ccc(S(=O)(=O)Nc2ccccc2-c2nc3c(Cl)ccc(Cl)c3c(=O)o2)cc1`: the T/C runs as follows: under setting [1], 105 % of control; under setting [2], 92 % of control.

As for `CC(=O)Nc1ccc([N+](=O)[O-])cc1`, the T/C is 95 % of control (dose: 12.5 mg/kg/injection, schedule: Q01DX009 (ip), vehicle: alcohol); 102 % of control (dose: 25.0 mg/kg/injection, schedule: Q01DX009 (ip), vehicle: alcohol); 93 % of control (dose: 50.0 mg/kg/injection, schedule: Q01DX009 (ip), vehicle: alcohol); 88 % of control under setting [11].

With `COC1=C(Br)[C@H](O)[C@](O)(CC#N)C=C1Br`, the T/C reads like this: (dose: 17.5 mg/kg/injection, schedule: Q01DX009 (ip), vehicle: Klucel (hydroxypropylcellulose) (HPC)) 105 % of control; under setting [6], 87 % of control; (dose: 35.0 mg/kg/injection, schedule: Q01DX009 (ip), vehicle: Klucel (hydroxypropylcellulose) (HPC)) 99 % of control; (dose: 70.0 mg/kg/injection, schedule: Q01DX009 (ip), vehicle: Klucel (hydroxypropylcellulose) (HPC)) 107 % of control.

On to `O=C1NC(=O)c2cccc3cccc1c23`, for which the T/C (dose: 100.0 mg/kg/injection, schedule: Q04DX003 (ip), vehicle: saline with Tween-80) was 94 % of control.

`COc1ccc(Cl)[n+]([O-])n1`: the T/C reads like this: (dose: 3.13 mg/kg/injection, schedule: Q01DX009 (ip), vehicle: Klucel (hydroxypropylcellulose) (HPC)) 92 % of control; under setting [4], 95 % of control; under setting [5], 98 % of control; under setting [6], 96 % of control; under setting [12], 98 % of control; under setting [1], 91 % of control.
